Here are results for 14 compounds from publication PMC6009896, “Dual targeting of cancer-related human matrix metalloproteinases and carbonic anhydrases by chiral N-(biarylsulfonyl)-phosphonic acids” (Journal of Enzyme Inhibition and Medicinal Chemistry, 2017).

By IC50 is commonly meant the concentration needed to halve the response being measured.

For test [1], the system named is MMP-8. The arrangement: method as in PMID 17088065, PMID 16451058, PMID 19204958. The following applies: Table 2; existing data ref 16, 17, 24; cited from earlier work.
Test [2] relates to MMP-2. Set-up: method as in PMID 17088065, PMID 16451058, PMID 19204958. The note with it: Table 2; existing data ref 16, 17, 24; cited from earlier work.
For test [3], the target named is Human CA IX (Homo sapiens, UniProt Q16790). Description: CA catalyzed CO2 hydration stopped-flow assay, CA IX.
Protocol: (§1) An applied photophysics stopped-flow instrument has been used for assaying the CA catalyzed CO2 hydration activity. […] The CO2 concentrations ranged from 1.7 to 17 mM for the determination of the kinetic parameters and inhibition constants. […] The uncatalyzed rates were determined in the same manner and subtracted from the total observed rates. Stock solutions of inhibitor (10–50 mM) were prepared in distilled-deionized water and dilutions up to 0.1 nM were done thereafter with the assay buffer.
Test [4] addresses Human CA I (Homo sapiens, UniProt P00915). In words: CA catalyzed CO2 hydration stopped-flow assay, CA I.
Protocol: as §1
The target of test [5] is Human CA II (Homo sapiens, UniProt P00918). In words: CA catalyzed CO2 hydration stopped-flow assay, CA II. The following applies: for decrease in activity on CA II compared to the standard AAZ: versus AAZ.
Protocol: as §1
Test [6] deals with Human CA XII (Homo sapiens, UniProt O43570). In words: CA catalyzed CO2 hydration stopped-flow assay, CA XII.
Chain of Human CA XII (O43570 25-354): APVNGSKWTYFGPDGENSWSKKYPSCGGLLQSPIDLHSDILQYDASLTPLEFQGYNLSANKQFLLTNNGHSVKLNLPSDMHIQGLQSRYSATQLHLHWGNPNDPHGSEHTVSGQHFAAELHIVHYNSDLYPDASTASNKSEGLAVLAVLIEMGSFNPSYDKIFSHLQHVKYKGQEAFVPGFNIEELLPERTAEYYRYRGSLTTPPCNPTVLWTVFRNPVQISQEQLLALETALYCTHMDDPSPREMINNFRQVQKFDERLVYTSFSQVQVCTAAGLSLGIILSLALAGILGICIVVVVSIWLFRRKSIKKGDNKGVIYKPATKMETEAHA
Protocol: as §1
Test [7] deals with Human CA XIV (Homo sapiens, UniProt Q9ULX7). In words: CA catalyzed CO2 hydration stopped-flow assay, CA XIV.
Chain of Human CA XIV (Q9ULX7 16-337): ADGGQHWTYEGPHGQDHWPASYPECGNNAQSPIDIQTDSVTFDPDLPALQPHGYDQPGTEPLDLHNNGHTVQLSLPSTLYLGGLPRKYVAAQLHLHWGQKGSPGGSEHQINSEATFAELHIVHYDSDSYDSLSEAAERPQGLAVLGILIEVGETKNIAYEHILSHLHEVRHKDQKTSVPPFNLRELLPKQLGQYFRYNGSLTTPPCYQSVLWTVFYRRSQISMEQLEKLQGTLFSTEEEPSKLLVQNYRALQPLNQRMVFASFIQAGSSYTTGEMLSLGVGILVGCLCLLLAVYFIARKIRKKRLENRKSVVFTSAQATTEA
Protocol: as §1
Where [8] appears, read: read-out: IC50 CA IX, Table 2, recombinant human CA IX, stopped-flow CO2 hydration.
The mark [9] stands for this setting: read-out: IC50 CA I, Table 1, recombinant human CA I, stopped-flow CO2 hydration, 15 min preincubation.
[10] abbreviates: read-out: IC50 CA I, Table 2, recombinant human CA I, stopped-flow CO2 hydration.
The mark [11] stands for this setting: read-out: IC50 CA II, Table 1, human CA II, stopped-flow CO2 hydration, 15 min preincubation.
[12] abbreviates: read-out: IC50 CA II, Table 2, recombinant human CA II, stopped-flow CO2 hydration.
Where [13] appears, read: read-out: IC50 CA XII, Table 2, recombinant human CA XII, stopped-flow CO2 hydration.
Where [14] appears, read: read-out: IC50 CA XIV, Table 2, recombinant human CA XIV, stopped-flow CO2 hydration.
[15] abbreviates: IC50 CA II, Table 1, human CA II, stopped-flow CO2 hydration, 15 min preincubation.

Read-outs that look alike come from different tables or passages of the source. Some results are limits rather than exact numbers.

Chain of Human CA I (P00915 whole entry): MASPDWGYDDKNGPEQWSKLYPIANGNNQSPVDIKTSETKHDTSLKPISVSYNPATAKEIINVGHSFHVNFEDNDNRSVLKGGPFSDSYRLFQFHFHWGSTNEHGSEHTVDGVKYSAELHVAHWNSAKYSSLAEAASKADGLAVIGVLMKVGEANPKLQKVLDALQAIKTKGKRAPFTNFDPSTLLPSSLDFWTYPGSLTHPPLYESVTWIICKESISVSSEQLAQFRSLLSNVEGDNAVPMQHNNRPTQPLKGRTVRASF

In the case of `COc1ccc(-c2ccc(S(=O)(=O)N[C@@H](C(C)C)P(=O)(O)O)cc2)cc1` [(R)-15, (R)-N-(4′-methoxybiphenylsulfonyl)-phosphovaline], the concentration for half-maximal inhibition (IC50) in test [1] is 0.0014 µM; in test [2], 0.0015 µM; in test [3] (setting [8]) it was 0.084 µM; in test [4] (setting [9]) it was over 10 µM; in test [4] (setting [10]), over 10 µM; in test [5] (setting [11]), 3.78 µM. In addition, the IC50 came out at 3.78 µM in test [5] (setting [12]), 6.22 µM in test [6] (setting [13]) and 1.52 µM in test [7] (setting [14]). The “decrease in activity on CA II compared to the standard AAZ” value (from here on “decrease in activity on CA II”) in test [5] was about 100 fold.
On to `O=P(O)(O)CS(=O)(=O)c1ccc(-c2cccs2)cc1` [Compound 7], for which the IC50 in test [4] (setting [9]) and in test [5] (setting [11]) was over 10 µM each time.
Turning to `COc1ccc(-c2ccc(S(=O)(=O)C(Cc3ccccc3)P(=O)(O)O)cc2)cc1` (stereo not drawn) [Compound 10, 1–(4′-methoxybiphenyl-4-sulfonyl)-2-phenylethylphosphonic acid], the IC50 was 8.2 µM in test [2]; 0.837 µM in test [3]; over 10 µM in test [4]; over 10 µM in test [4] (setting [10]); over 10 µM in test [5] (setting [15]); 21.1 µM in test [5] (IC50 CA II, Table 2, recombinant human CA II, stopped-flow CO2 hydration). Besides, the figures for the half-inhibitory concentration (IC50) in test [6] and in test [7] were 8.48 µM and 7.47 µM, respectively.
For `COc1ccc(Oc2ccc(S(=O)(=O)CP(=O)(O)O)cc2)cc1` [Compound 8], the IC50 in test [4] (setting [9]) and in test [5] (setting [11]) was over 10 µM throughout.
For `O=P(O)(O)CS(=O)(=O)c1ccc(-c2cccc(Cl)c2)cc1` [Compound 6], the IC50 in test [4] (setting [9]) and in test [5] (setting [11]) was over 10 µM in each case.
For the compound `CC(C)CC(P(=O)(O)O)S(=O)(=O)c1ccc(-c2ccccc2)cc1` (racemic) [Compound 9], the IC50 in test [4] (setting [9]) and in test [5] (setting [11]) was over 10 µM each time.
With `Cc1ccc(-c2ccc(S(=O)(=O)N[C@@H](C(C)C)P(=O)(O)O)cc2)cc1` [(R)-12, (R)-N-(4′-methylbiphenylsulfonyl)-phosphovaline], the IC50 in test [1] was 0.0004 µM; in test [2] it was 0.0023 µM; in test [3] (setting [8]), 0.093 µM; in test [4] (setting [9]) it was over 10 µM; in test [4] (setting [10]), over 10 µM; in test [5] (setting [11]) it was 4.14 µM. Moreover, the IC50 stood at 4.14 µM in test [5] (read-out: IC50 CA II, Table 2, CA II from Sigma); 0.47 µM in test [6] (read-out: IC50 CA XII, rounded value); 0.475 µM in test [6] (setting [13]); 0.37 µM in test [7] (read-out: IC50 CA XIV, rounded value); 0.369 µM in test [7] (setting [14]). In test [5], the “decrease in activity on CA II” value is recorded as about 100 fold. Also, the “decrease in potency on CA XII in comparison to CA IX” value in test [6] (CA XII versus CA IX) is on record as 4 fold. Moreover, in test [7] (CA XIV versus CA IX), the “decrease in potency on CA XIV in comparison to CA IX” value was determined as 4 fold.
For the compound `O=C(O)CS(=O)(=O)c1ccc(-c2ccccc2)cc1` [Compound 2], the “inhibitory activity on CA I (in words)” value in test [4] is “completely devoid of activity”. Moreover, the IC50 in test [4] (setting [9]) and in test [5] (setting [11]) was over 10 µM each time. For the same compound, in test [5], the “inhibitory activity on CA II (in words)” value is listed as “completely devoid of activity”.
`O=P(O)(O)CS(=O)(=O)c1ccc(-c2ccc(C(F)(F)F)cc2)cc1` [Compound 5]: the concentration for half-maximal inhibition (IC50) in test [4] (setting [9]) and in test [5] (setting [11]) was over 10 µM each time.
Consider `Cc1cccc(-c2ccc(S(=O)(=O)N[C@@H](C(C)C)P(=O)(O)O)cc2)c1` [(R)-13, (R)-1-[3′-methyl-biphenyl-4-sulfonylamino]-2-methylpropyl phosphonic acid], for which the IC50 in test [4] and in test [5] (setting [15]) was over 10 µM in each case.
As to `O=C(CS(=O)(=O)c1ccc(-c2ccccc2)cc1)NO` [Compound 3], the IC50 in test [1] was 0.024 µM; in test [2] it was 0.006 µM; in test [3] (read-out: IC50 CA IX, rounded value), 0.5 µM; in test [3] (setting [8]), 0.527 µM; in test [4] (read-out: IC50 CA I, rounded value), 8.3 µM; in test [4] (setting [9]), 8.3 µM. Also, the 50% inhibitory concentration (IC50) in test [4] (setting [10]) was 8.3 µM; in test [5] (setting [11]), 3.66 µM; in test [5] (setting [12]) it was 3.66 µM; in test [6] (setting [13]), 8.86 µM; in test [7] (setting [14]), 8.53 µM. For the same compound, the “decrease in activity on CA II” value in test [5] is about 100 fold.
Consider `CC(C)(P(=O)(O)O)S(=O)(=O)c1ccc(-c2ccccc2)cc1` [Compound 11], for which the IC50 in test [4] (setting [9]) and in test [5] (setting [11]) was over 10 µM in each case.
As to `O=P(O)(O)CS(=O)(=O)c1ccc(-c2ccccc2)cc1` [Compound 1], the IC50 in test [4] (setting [9]) and in test [5] (setting [11]) was over 10 µM in each case.
In the case of `COc1ccc(-c2ccc(S(=O)(=O)CP(=O)(O)O)cc2)cc1` [Compound 4], the IC50 in test [4] (setting [9]) and in test [5] (setting [11]) was over 10 µM throughout.
